Tests used:
Test in all cases: SelectScreen kinase selectivity assay
Type in all cases: biochemical
Conditions in all cases: ten-dose 0.25–128 μM
[1] = molecular target: FGFR1 (Homo sapiens, UniProt P11362)
Protocol: (§1) Following the standardized kinase activity assay protocol as previously reported, we utilized the SelectScreen Kinase Profiling Service (Thermo Fisher Scientific) to determine the kinase selectivity profile of FLIN-4 ([van der Wel et al., 2020]). Through a ten-dose dilution series ranging from 0.25 μM to 128 μM in dose-response experiments, we precisely measured the inhibitory effect of FLIN-4 on the substrate phosphorylation reactions catalyzed by a panel of kinases, and thus ascertained the half-maximal inhibitory concentrations (IC50) for each kinase.

[2] = molecular target: INSRR (Homo sapiens, UniProt P14616)
Protocol: as §1

[3] = molecular target: EPHA4 (Homo sapiens, UniProt P54764)
Sequence of EPHA4 (P54764 20-986): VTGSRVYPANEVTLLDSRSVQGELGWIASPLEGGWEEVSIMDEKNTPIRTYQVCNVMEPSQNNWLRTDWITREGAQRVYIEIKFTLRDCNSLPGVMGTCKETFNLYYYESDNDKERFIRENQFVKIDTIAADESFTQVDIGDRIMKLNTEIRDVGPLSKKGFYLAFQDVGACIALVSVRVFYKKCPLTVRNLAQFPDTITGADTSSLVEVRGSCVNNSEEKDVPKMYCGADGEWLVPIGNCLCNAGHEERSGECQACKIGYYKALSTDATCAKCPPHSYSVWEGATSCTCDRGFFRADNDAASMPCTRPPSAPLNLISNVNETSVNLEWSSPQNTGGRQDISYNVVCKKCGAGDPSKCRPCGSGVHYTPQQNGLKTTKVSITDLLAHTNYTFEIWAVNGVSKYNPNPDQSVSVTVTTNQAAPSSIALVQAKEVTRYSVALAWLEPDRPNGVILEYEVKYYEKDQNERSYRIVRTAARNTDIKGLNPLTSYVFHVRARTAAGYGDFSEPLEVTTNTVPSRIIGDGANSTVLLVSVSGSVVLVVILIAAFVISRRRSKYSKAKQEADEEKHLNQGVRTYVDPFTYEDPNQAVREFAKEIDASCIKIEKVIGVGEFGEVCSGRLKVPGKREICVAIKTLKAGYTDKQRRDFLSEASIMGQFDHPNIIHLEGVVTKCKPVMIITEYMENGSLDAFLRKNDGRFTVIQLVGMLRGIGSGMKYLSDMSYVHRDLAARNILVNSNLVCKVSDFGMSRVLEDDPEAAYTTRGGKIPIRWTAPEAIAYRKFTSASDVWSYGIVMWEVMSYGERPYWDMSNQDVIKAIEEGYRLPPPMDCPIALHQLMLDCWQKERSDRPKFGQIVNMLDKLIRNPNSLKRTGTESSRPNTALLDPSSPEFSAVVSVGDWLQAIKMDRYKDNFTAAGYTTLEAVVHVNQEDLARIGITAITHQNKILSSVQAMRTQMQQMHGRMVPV
Protocol: as §1

[4] = molecular target: FGFR2 (Homo sapiens, UniProt P21802)
Protocol: as §1

[5] = molecular target: EPHA6 (Homo sapiens, UniProt Q9UF33)
Protocol: as §1

[6] = molecular target: EPHA2 (Homo sapiens, UniProt P29317)
Protocol: as §1

[7] = molecular target: FGR (Homo sapiens, UniProt P09769)
Protocol: as §1

[8] = molecular target: MERTK (Homo sapiens, UniProt Q12866)
Protocol: as §1

[9] = molecular target: ABL1 (Homo sapiens, UniProt P00519)
Protocol: as §1

[10] = molecular target: MET (Homo sapiens, UniProt P08581)
Protocol: as §1

[11] = molecular target: MST1R (Homo sapiens, UniProt Q04912)
Sequence of MST1R (Q04912 25-1400): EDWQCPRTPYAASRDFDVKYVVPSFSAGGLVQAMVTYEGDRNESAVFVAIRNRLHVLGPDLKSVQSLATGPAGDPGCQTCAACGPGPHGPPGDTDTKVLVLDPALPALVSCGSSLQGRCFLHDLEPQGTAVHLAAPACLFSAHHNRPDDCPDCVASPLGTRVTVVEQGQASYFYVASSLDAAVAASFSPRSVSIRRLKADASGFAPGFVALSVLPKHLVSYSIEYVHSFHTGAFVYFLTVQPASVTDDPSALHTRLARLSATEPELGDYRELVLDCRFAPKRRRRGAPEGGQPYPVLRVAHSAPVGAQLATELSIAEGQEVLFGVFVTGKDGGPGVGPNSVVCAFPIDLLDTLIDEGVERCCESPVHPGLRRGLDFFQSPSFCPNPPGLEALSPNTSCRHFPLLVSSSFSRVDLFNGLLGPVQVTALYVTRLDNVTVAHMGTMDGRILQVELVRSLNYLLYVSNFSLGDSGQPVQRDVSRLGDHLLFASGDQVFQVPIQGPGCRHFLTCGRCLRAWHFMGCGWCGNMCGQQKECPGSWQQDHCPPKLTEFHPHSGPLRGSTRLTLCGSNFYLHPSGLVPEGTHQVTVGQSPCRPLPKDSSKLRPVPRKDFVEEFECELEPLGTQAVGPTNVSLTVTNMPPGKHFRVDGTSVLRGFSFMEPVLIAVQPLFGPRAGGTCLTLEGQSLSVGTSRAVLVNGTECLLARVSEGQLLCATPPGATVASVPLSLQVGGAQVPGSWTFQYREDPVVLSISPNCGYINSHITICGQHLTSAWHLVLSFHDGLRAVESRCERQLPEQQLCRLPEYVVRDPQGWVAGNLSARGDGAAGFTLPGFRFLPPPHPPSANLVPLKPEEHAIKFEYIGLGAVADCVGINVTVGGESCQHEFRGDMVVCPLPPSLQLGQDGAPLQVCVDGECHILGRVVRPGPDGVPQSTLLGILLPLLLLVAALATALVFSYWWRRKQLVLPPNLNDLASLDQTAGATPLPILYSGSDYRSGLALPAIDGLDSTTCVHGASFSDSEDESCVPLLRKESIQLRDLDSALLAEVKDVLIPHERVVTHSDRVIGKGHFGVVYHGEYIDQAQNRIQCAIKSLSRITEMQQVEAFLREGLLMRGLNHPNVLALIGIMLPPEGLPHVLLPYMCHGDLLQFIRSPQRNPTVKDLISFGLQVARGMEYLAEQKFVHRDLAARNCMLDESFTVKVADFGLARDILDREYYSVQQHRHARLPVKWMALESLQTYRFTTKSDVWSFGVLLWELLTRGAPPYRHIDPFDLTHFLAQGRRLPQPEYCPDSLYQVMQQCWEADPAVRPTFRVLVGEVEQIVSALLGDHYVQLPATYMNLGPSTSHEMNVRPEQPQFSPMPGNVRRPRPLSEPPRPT
Protocol: as §1

[12] = molecular target: ABL2 (Homo sapiens, UniProt P42684)
Protocol: as §1

[13] = molecular target: NTRK3 (Homo sapiens, UniProt Q16288)
Protocol: as §1

[14] = molecular target: JAK1 (Homo sapiens, UniProt P23458)
Protocol: as §1

[15] = molecular target: EPHA1 (Homo sapiens, UniProt P21709)
Sequence of EPHA1 (P21709 26-976): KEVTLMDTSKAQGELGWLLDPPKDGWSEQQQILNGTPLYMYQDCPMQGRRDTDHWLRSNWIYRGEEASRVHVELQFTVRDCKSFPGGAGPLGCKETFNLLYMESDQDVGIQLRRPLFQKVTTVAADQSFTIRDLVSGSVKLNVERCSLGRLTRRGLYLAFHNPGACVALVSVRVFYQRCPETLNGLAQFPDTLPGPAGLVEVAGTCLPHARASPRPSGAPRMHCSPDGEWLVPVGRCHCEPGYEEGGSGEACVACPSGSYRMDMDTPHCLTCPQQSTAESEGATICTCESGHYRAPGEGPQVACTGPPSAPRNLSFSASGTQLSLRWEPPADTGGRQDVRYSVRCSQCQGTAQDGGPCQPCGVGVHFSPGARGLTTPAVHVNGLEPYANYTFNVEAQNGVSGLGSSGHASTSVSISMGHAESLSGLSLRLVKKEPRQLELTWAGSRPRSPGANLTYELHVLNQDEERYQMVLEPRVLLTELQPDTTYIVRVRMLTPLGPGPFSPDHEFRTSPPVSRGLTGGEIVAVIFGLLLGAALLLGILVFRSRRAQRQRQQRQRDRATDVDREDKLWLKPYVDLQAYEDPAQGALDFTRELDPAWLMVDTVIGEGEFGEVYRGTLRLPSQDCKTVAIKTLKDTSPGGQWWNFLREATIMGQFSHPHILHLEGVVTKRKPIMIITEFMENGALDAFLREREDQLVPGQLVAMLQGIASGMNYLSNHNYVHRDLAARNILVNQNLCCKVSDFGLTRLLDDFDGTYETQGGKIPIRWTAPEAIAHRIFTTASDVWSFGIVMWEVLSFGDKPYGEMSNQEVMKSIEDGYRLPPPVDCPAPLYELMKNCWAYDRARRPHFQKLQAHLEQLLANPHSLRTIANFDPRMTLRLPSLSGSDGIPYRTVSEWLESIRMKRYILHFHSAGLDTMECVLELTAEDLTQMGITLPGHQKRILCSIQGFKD
Protocol: as §1

[16] = molecular target: IGF1R (Homo sapiens, UniProt P08069)
Protocol: as §1

[17] = molecular target: EPHA5 (Homo sapiens, UniProt P54756)
Protocol: as §1

[18] = molecular target: FYN (Homo sapiens, UniProt P06241)
Protocol: as §1

[19] = molecular target: JAK2 (Homo sapiens, UniProt O60674)
Protocol: as §1

[20] = molecular target: LYN (Homo sapiens, UniProt P07948)
Protocol: as §1

[21] = molecular target: AXL (Homo sapiens, UniProt P30530)
Protocol: as §1

[22] = molecular target: PIM1 (Homo sapiens, UniProt P11309)
Protocol: as §1

[23] = molecular target: LTK (Homo sapiens, UniProt P29376)
Protocol: as §1

[24] = molecular target: CSF1R (Homo sapiens, UniProt P07333)
Protocol: as §1

[25] = molecular target: ZAP70 (Homo sapiens, UniProt P43403)
Sequence of ZAP70 (P43403 whole entry): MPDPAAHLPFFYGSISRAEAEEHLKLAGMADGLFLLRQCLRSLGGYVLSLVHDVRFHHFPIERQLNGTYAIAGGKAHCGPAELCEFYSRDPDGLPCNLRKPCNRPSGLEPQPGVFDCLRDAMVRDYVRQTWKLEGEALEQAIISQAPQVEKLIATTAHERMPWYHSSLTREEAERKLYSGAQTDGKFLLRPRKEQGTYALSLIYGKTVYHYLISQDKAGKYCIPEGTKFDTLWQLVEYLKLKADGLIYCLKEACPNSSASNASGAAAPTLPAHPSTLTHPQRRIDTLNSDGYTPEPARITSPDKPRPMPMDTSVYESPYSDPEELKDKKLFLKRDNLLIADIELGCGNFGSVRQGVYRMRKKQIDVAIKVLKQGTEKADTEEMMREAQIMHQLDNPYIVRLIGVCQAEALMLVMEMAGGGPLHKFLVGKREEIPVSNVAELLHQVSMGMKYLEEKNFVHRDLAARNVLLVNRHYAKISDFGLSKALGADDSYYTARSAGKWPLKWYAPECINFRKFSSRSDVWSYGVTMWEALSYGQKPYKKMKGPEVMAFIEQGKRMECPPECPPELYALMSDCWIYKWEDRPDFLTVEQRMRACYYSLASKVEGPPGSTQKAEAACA
Protocol: as §1

[26] = molecular target: ITK (Homo sapiens, UniProt Q08881)
Protocol: as §1

[27] = molecular target: FGFR3 (Homo sapiens, UniProt P22607)
Protocol: as §1

[28] = molecular target: PDGFRA (Homo sapiens, UniProt P16234)
Protocol: as §1

[29] = molecular target: CDK1 (Homo sapiens, UniProt P06493)
Protocol: as §1

[30] = molecular target: PLK1 (Homo sapiens, UniProt P53350)
Protocol: as §1

[31] = molecular target: NTRK2 (Homo sapiens, UniProt Q16620)
Protocol: as §1

[32] = molecular target: TYRO3 (Homo sapiens, UniProt Q06418)
Protocol: as §1

[33] = molecular target: EPHA8 (Homo sapiens, UniProt P29322)
Protocol: as §1

[34] = molecular target: EPHB2 (Homo sapiens, UniProt P29323)
Protocol: as §1

[35] = molecular target: CDK2 (Homo sapiens, UniProt P24941)
Protocol: as §1

[36] = molecular target: FGFR4 (Homo sapiens, UniProt P22455)
Protocol: as §1

[37] = molecular target: EPHB3 (Homo sapiens, UniProt P54753)
Protocol: as §1

[38] = molecular target: NTRK1 (Homo sapiens, UniProt P04629)
Protocol: as §1

[39] = molecular target: BMX (Homo sapiens, UniProt P51813)
Protocol: as §1

[40] = molecular target: DDR1 (Homo sapiens, UniProt Q08345)
Protocol: as §1

[41] = molecular target: EPHB1 (Homo sapiens, UniProt P54762)
Protocol: as §1

[42] = molecular target: PTK2 (Homo sapiens, UniProt Q05397)
Sequence of PTK2 (Q05397 whole entry): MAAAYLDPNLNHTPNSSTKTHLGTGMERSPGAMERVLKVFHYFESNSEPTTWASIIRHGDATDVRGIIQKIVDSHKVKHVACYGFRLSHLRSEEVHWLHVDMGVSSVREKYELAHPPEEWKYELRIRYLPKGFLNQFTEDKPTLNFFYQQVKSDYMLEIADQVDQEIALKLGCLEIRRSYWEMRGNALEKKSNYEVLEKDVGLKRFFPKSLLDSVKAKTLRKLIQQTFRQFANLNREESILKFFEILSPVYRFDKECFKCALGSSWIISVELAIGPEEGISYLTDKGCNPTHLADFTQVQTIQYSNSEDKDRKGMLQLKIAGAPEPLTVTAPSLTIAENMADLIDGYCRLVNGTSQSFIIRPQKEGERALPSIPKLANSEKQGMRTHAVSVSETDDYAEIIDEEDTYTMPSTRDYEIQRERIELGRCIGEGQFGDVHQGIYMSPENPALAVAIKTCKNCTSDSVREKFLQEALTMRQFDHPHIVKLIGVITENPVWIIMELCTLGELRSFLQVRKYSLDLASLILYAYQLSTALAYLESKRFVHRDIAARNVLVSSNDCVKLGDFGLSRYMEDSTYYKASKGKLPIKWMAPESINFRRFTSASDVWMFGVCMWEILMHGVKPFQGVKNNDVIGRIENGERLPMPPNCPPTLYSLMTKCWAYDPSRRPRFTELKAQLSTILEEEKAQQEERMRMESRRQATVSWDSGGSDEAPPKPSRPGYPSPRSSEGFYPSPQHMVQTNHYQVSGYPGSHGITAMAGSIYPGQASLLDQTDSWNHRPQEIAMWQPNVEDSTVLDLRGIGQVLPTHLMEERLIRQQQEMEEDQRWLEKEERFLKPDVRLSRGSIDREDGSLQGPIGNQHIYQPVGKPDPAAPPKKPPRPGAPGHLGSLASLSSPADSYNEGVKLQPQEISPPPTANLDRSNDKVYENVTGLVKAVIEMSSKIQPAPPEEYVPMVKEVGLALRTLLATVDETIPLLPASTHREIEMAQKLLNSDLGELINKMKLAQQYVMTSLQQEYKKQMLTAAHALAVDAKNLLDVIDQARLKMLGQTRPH
Protocol: as §1

Measured: IC50

CCc1nc(C(N)=O)c(Nc2ccc(N3CCC(Nc4ccccc4)CC3)c(OC)c2)nc1NC1CCOC(C(O)CO)C1 (stereo not drawn) [FLIN-4]
> 10 µM: all assays above

Reference: article PMC11830721 (Frontiers in Pharmacology, 2025)
